In patent publication US9751867B2 (Syngenta Participations AG, priority 2014, dated 2017):
Read-outs that look alike come from different tables or passages of the source.

Experiments:
NK Falkone corn seeds = assay: Corn seed germination under cold stress (15° C.); type: in vivo; conditions: for change in vivo at 50 µM: rate 50 μM; for change in vivo at 250 µM: rate 250 μM
Protocol: The effect of compounds of Formula (I) on the germination of NK Falkone corn seeds under cold stress was evaluated as follows.
NK Falkone corn seeds were sorted by size using 2 sieves, one excluding very big seeds and the other with round holes of 8 to 9 mm diameter. The seeds retained by the latter sieve are used for the germination test.
The corn seeds were placed in 24 well plates (each plate is considered as one experimental unit or replicate). Germination is initiated by the addition of 250 μl of distilled water containing 0.5% DMSO per well as a mean for compound solubilization. 8 replicates (ie, 8 plates) were used for each treatment characterization. Plates were sealed using seal foil (Polyolefin Art. Nr. 900320) from HJ-BIOANALYTIK. All plates were placed horizontally on trolleys in a climatic chamber at 15° C. or 23° C. in complete darkness. The experiment is laid out in a completely randomized design in climatic chamber with 75% Relative Humidity. Foils are pierced, one hole per well using a syringe after 72 hours for experiments performed at 15° C. and after 24 hours for experiments performed at 23° C.
Germination is followed over time by taking photographs at different time points. Image analysis is done automatically with a macro developed using the Image J software. A dynamic analysis of germination is carried out by fitting a logistic curve to the relationship between % germination and time for each plate (T50 parameter).
T50 is the time needed for half the seed population to be germinated. A negative value of T50 represents a faster germination rate. The mean of T50 parameters is calculated for the 8 replicates and the kinetic parameter is determined for each germination curve. Data in bold indicate germination enhancing statistically significant differences between treated seeds and control (empty vehicle treated) T50 values (P<0.05) as outlined in Table 7.

[1] = tested on: Orobanche cumana Wallr. seeds; assay: Orobanche seed germination; type: in vivo; conditions: preconditioned O. cumana seeds, 10 days at 20° C. in the dark, N = 5 × 100 seeds, control (0.01% DMSO) 0.75% germination
Protocol: The effect of the compounds of Formula (I) on the germination of Orobanche cumana Wallr. seeds was evaluated on glass fibre filter paper (GFFP) in petri dishes. Seeds were pre-conditioned at moisture and suitable temperature to become responsive to the specific chemical germination stimulants.
Test compounds were dissolved in DMSO (10 000 mgl^−1) and stored at room temperature in a desiccator with desiccants. The stock solutions were dissolved with sterile deionised water to the appropriate final test concentration.
Seeds of O. cumana race ‘F’ were collected from sunflower fields in Manzanilla (Seville, Spain) in 2008 (seed lot IN153) and stored at room temperature. To separate seeds from heavy organic debris, a modified sucrose floatation technique as described by Hartman & Tanimonure (Plant Disease (1991), 75, 494) was applied. Seeds were filled into a separation funnel and stirred in water. When seeds floated to the surface, the water fraction containing heavy debris was discarded. Seeds were re-suspended in 2.5 M sucrose solution (specific gravity of 1.20) and heavy debris was allowed to settle down for 60 minutes. After removing debris, seeds were disinfected in 1% sodium hypochlorite solution and 0.025% (v/v) Tween 20 for 2 minutes. The seeds were decanted onto two layers of cheese cloth, rinsed with sterile deionised water and re-suspended in sterile deionised water. 2 mL of the seed suspension containing approximately 150 to 400 seeds was spread evenly on two layers of sterile glass fiber filter paper disc ([…]) in Petri dishes ( ? 9 cm). After wetting the discs with 3 mL sterile deionised water, petri dishes were sealed with parafilm. Seeds were incubated for 10 days at 20° C. in the dark for seed conditioning. The upper disc with conditioned seeds was briefly dried, transferred to a petri dish lined with a dry GFFP disc, and wetted with 6 mL of the appropriate test solution. The compounds of Formula (I) were tested at concentrations of 0.01, 0.1, and 1 mg/L. The strigolactone analogue GR24 (commercially available as a mixture of isomers) was included as positive control and 0.01% DMSO as negative control. All treatments were tested in five replicates. Seeds were re-incubated at 20° C. in the dark and examined for germination 10 days later.
The radicles of germinated seeds were stained for 5 minutes with blue ink (PELIKAN #4001, Germany) in 5% acetic acid according to Long et al (Seed Science Research (2008), 18, 125). After staining, seeds were photographed using a camera stand mounted with a digital SLR camera (Canon EOS 5D). Germination of 100 seeds per replicate was evaluated on digital images. Seeds were considered germinated when the radicle protruded from the seed coat.

[2] = Zea mays, rate 2 μM, 15° C., negative value = faster germination, control 0.5% DMSO in water, read-out: T50 (% vs control)
[3] = Zea mays, rate 10 μM, 15° C., negative value = faster germination, control 0.5% DMSO in water, read-out: T50 (% vs control)
[4] = Zea mays, 15° C., negative value = faster germination, control 0.5% DMSO in water, read-out: T50 (% vs control)
[5] = Zea mays, rate 1 μM, 15° C., negative value = faster germination, control 0.5% DMSO in water, read-out: T50 (% vs control)
[6] = Zea mays, rate 5 μM, 15° C., negative value = faster germination, control 0.5% DMSO in water, read-out: T50 (% vs control)
[7] = Zea mays, rate 25 μM, 15° C., negative value = faster germination, control 0.5% DMSO in water, read-out: T50 (% vs control)
[8] = Zea mays, read-out: T50 (% vs control)

| Compound | Germination (%) ([1]; 0.01 mg/L) | Germination (%) ([1]; 0.1 mg/L) | change in vivo at 2 µM (NK Falkone corn seeds; [2]) [%] | change in vivo at 10 µM (NK Falkone corn seeds; [3]) [%] | change in vivo at 50 µM (NK Falkone corn seeds; [4]) [%] | change in vivo at 250 µM (NK Falkone corn seeds; [4]) [%] | other results |
| --- | --- | --- | --- | --- | --- | --- | --- |
| CC1=C[C@H](O/C=C2/C(=O)O[C@@H]3c4ccccc4C[C@H]23)OC1=O [GR-24, reference compound] |  |  |  |  |  |  | T50 (% vs control) (NK Falkone corn seeds; rate 0.08 μM, 15° C., negative value = faster germination, control 0.5% DMSO in water): 0.1 % vs control; T50 (% vs control) (NK Falkone corn seeds; rate 0.4 μM, 15° C., negative value = faster germination, control 0.5% DMSO in water): −2 % vs control; T50 (% vs control) (NK Falkone corn seeds; rate 2 μM, 15° C., negative value = faster germination, control 0.5% DMSO in water): −0.6 % vs control; T50 (% vs control) (NK Falkone corn seeds; rate 10 μM, 15° C., negative value = faster germination, control 0.5% DMSO in water): −2.4 % vs control |
| CC1=CC(O/C=C2/C(=O)N(C(=O)OC(C)(C)C)C3c4ccccc4CC23)N(CC(F)(F)F)C1=O (centres unmarked) [Ia-7, tert-butyl (3E)-3-[(4-methyl-5-oxo-1-(2,2,2-trifluoroethyl)-2H-pyrrol-2-yl)oxymethylene]-2-oxo-4,8b-dihydro-3aH-indeno[1,2-b]pyrrole-1-carboxylate] | 34 | 8 |  |  |  |  |  |
| CC1=CC(O/C=C2/C(=O)NC3c4ccccc4CC23)N(c2ccccc2)C1=O (centres unmarked) [Ib-2, (3E)-3-[(4-methyl-5-oxo-1-phenyl-2H-pyrrol-2-yl)oxymethylene]-1,3a,4,8b-tetrahydroindeno[1,2-b]pyrrol-2-one] |  |  | -2.5 | -6.1 | -6.2 |  | change in vivo at 0.4 µM (NK Falkone corn seeds; Zea mays, rate 0.4 μM, 15° C., negative value = faster germination, control 0.5% DMSO in water, read-out: T50 (% vs control)): -0.4% |
| CON1C(=O)C(C)=CC1O/C=C1/C(=O)NC2c3ccccc3CC12 (centres unmarked) [Ib-3, (3E)-3-[(4-methyl-5-oxo-1-methoxy-2H-pyrrol-2-yl)oxymethylene]-1,3a,4,8b-tetrahydroindeno[1,2-b]pyrrol-2-one] |  |  | -4 | 3.4 | -3.8 | -5.5 |  |
| CC1=CC(O/C=C2/C(=O)NC3c4ccccc4CC23)N(C2CC2)C1=O (centres unmarked) [Ib-5, (3E)-3-[(4-methyl-5-oxo-1-cyclopropyl-2H-pyrrol-2-yl)oxymethylene]-1,3a,4,8b-tetrahydroindeno[1,2-b]pyrrol-2-one] | 68 | 73 | -0.8 | -4.3 | -3.9 | -5.8 |  |
| CC1=CC(O/C=C2/C(=O)NC3c4ccccc4CC23)N(CC(F)(F)F)C1=O (centres unmarked) [Ib-7, (3E)-3-[(4-methyl-5-oxo-1-(2,2,2-trifluoroethyl)-2H-pyrrol-2-yl)oxymethylene]-1,3a,4,8b-tetrahydroindeno[1,2-b]pyrrol-2-one] | 46 | 26 | 1.5 | -3 | -3.3 | -4.5 |  |
| CC1=CC(O/C=C2/C(=O)NC3c4ccccc4CC23)N(c2ccc(F)cc2)C1=O (centres unmarked) [Ib-8, (3E)-3-[(4-methyl-5-oxo-1-(4-fluoro-phenyl)-2H-pyrrol-2-yl)oxymethylene]-1,3a,4,8b-tetrahydroindeno[1,2-b]pyrrol-2-one] |  |  |  |  |  |  | change in vivo at 1 µM (NK Falkone corn seeds; [5]): -2.6%; change in vivo at 5 µM (NK Falkone corn seeds; [6]): -2.8%; change in vivo at 25 µM (NK Falkone corn seeds; [7]): 2%; change in vivo at 125 µM (NK Falkone corn seeds; Zea mays, rate 125 μM, 15° C., negative value = faster germination, control 0.5% DMSO in water, read-out: T50 (% vs control)): -2.3% |
| CC1=CC(O/C=C2/C(=O)NC3c4ccccc4CC23)N(c2cccc(F)c2)C1=O (centres unmarked) [Ib-9, (3E)-3-[(4-methyl-5-oxo-1-(3-fluoro-phenyl)-2H-pyrrol-2-yl)oxymethylene]-1,3a,4,8b-tetrahydroindeno[1,2-b]pyrrol-2-one] |  |  |  |  |  |  | change in vivo at 0.2 µM (NK Falkone corn seeds; Zea mays, rate 0.2 μM, 15° C., negative value = faster germination, control 0.5% DMSO in water, read-out: T50 (% vs control)): -0.8%; change in vivo at 1 µM (NK Falkone corn seeds; [5]): -4.8%; change in vivo at 5 µM (NK Falkone corn seeds; [6]): -5.6%; change in vivo at 25 µM (NK Falkone corn seeds; [7]): -5.2% |
| CC1=CC(O/C=C2/C(=O)NC3c4ccccc4CC23)N(c2cc(C(F)(F)F)cc(C(F)(F)F)c2)C1=O (centres unmarked) [Ib-13, (3E)-3-[(4-methyl-5-oxo-1-(3,5-bistrifluoromethyl-phenyl)-2H-pyrrol-2-yl)oxymethylene]-1,3a,4,8b-tetrahydroindeno[1,2-b]pyrrol-2-one] |  |  |  |  |  |  | change in vivo at 0.2 µM (NK Falkone corn seeds; [8]): 1%; change in vivo at 1 µM (NK Falkone corn seeds; [8]): -3.6%; change in vivo at 5 µM (NK Falkone corn seeds; [8]): -3.6%; change in vivo at 25 µM (NK Falkone corn seeds; [8]): -2.7% |
